Marks after values point to notes of the source that are not given here.
Tests used:
Format in all cases: in vivo, human
[1] = Study 202 post-hoc APRI and FIB-4 fibrosis index scores
Experimental: APRI and FIB-4 scores were calculated. Change in score category from baseline (BL) to Weeks 24 and 48 was assessed in patients with non-missing data. Correlations between changes from BL in APRI and FIB-4 scores, and MCP-1 (CCR2 ligand) and sCD14 (inflammatory biomarker) levels were evaluated.

[2] = Study 202 ECG abnormalities; conditions: through Week 48
[3] = Study 202 fasting metabolic laboratory parameters; conditions: All CVC (N = 115); EFV (N = 28), through Week 48
Excerpt: All abnormalities in total cholesterol, LDL cholesterol, triglycerides, or glucose were Grade 1 or Grade 2.
Mean baseline values and changes from baseline in HbA1c, HOMA-IR, fasting LDL, fasting HDL, fasting total cholesterol, fasting total cholesterol/HDL ratio, and fasting triglycerides are shown in Table 36.

[4] = All CVC (N = 115), EFV (N = 28)

Which results are given for `CCCCOCCOc1ccc(-c2ccc3c(c2)/C=C(/C(=O)Nc2ccc([S@@+]([O-])Cc4cncn4CCC)cc2)CCCN3CC(C)C)cc1` [CVC, (S)-8-[4-(2-Butoxyethoxy)phenyl]-1-isobutyl-N-(4-{[(1-propyl-1H-imidazol-5-yl)methyl]sulfinyl}phenyl)-1,2,3,4-tetrahydro-1-benzazocine-5-carboxamide]?
APRI 0.5-1.5, patients ([1]; Baseline): 14%; APRI <0.5, patients ([1]; Baseline): 84%; APRI >1.5, patients ([1]; Baseline): 2%; FIB-4 1.45-3.25, patients ([1]; Baseline): 17%; FIB-4 <1.45, patients ([1]; Baseline): 82%; FIB-4 >3.25, patients ([1]; Baseline): 1%; APRI 0.5-1.5, patients ([1]; Week 24): 7%; APRI <0.5, patients ([1]; Week 24): 93%; APRI decreased 1 category from baseline, patients ([1]; Week 24): 14%; FIB-4 1.45-3.25, patients ([1]; Week 24): 7%; FIB-4 <1.45, patients ([1]; Week 24): 93%; FIB-4 decreased 1 category from baseline, patients ([1]; Week 24): 13%; APRI 0.5-1.5, patients ([1]; Week 48): 8%; APRI <0.5, patients ([1]; Week 48): 91%; APRI >1.5, patients ([1]; Week 48): 1%; APRI decreased 1 category from baseline, patients ([1]; Week 48): 10%; FIB-4 1.45-3.25, patients ([1]; Week 48): 5%; FIB-4 <1.45, patients ([1]; Week 48): 94%; FIB-4 >3.25, patients ([1]; Week 48): 1%; FIB-4 decreased 1 category from baseline, patients ([1]; Week 48): 14%; subjects with improvements in APRI and FIB-4 scores over time ([1]; pooled CVC 100 mg and 200 mg): ≥ 10%; HR Abnormally high (120 bpm ≤ abnormally high) [2, 4]: 0 n (%); HR Abnormally low (≤ 50 bpm) [2, 4]: 0 n (%); PR Abnormally high (210 ms ≤ abnormally high) [2, 4]: 3 (3%) n (%); QRS Abnormally high (120 ms ≤ abnormally high) [2, 4]: 1 (1%)^d n (%); QRS Abnormally low (≤ 50 ms) [2, 4]: 0 n (%); QTcB interval Borderline (450 ms ≤ borderline ≤ 480 ms) [2, 4]: 6 (6%) n (%); QTcB interval Increase by >30-60 ms [2, 4]: 9 (9%) n (%); QTcB interval Increase by >60 ms [2, 4]: 1 (1%) n (%); QTcB interval Pathologically prolonged (> 500 ms) [2, 4]: 0 n (%); QTcB interval Prolonged (480 ms < prolonged ≤ 500 ms) [2, 4]: 0 n (%); QTcF interval Borderline (450 ms ≤ borderline ≤ 480 ms) [2, 4]: 2 (2%) n (%); QTcF interval Increase by >30-60 ms [2, 4]: 7 (7%) n (%); QTcF interval Increase by >60 ms [2, 4]: 1 (1%) n (%); QTcF interval Pathologically prolonged (> 500 ms) [2, 4]: 0 n (%); QTcF interval Prolonged (480 ms < prolonged ≤ 500 ms) [2, 4]: 0 n (%); HR Abnormally high (120 bpm ≤ abnormally high) ([2]; CVC 100 mg (N = 58)): 0 n (%); HR Abnormally low (≤ 50 bpm) ([2]; CVC 100 mg (N = 58)): 0 n (%); PR Abnormally high (210 ms ≤ abnormally high) ([2]; CVC 100 mg (N = 58)): 2 (3%) n (%); QRS Abnormally high (120 ms ≤ abnormally high) ([2]; CVC 100 mg (N = 58)): 1 (2%)^d n (%); QRS Abnormally low (≤ 50 ms) ([2]; CVC 100 mg (N = 58)): 0 n (%); QTcB interval Borderline (450 ms ≤ borderline ≤ 480 ms) ([2]; CVC 100 mg (N = 58)): 4 (8%) n (%); QTcB interval Increase by >30-60 ms ([2]; CVC 100 mg (N = 58)): 6 (12%) n (%); QTcB interval Increase by >60 ms ([2]; CVC 100 mg (N = 58)): 1 (2%) n (%); QTcB interval Pathologically prolonged (> 500 ms) ([2]; CVC 100 mg (N = 58)): 0 n (%); QTcB interval Prolonged (480 ms < prolonged ≤ 500 ms) ([2]; CVC 100 mg (N = 58)): 0 n (%); QTcF interval Borderline (450 ms ≤ borderline ≤ 480 ms) ([2]; CVC 100 mg (N = 58)): 1 (2%) n (%); QTcF interval Increase by >30-60 ms ([2]; CVC 100 mg (N = 58)): 4 (8%) n (%); QTcF interval Increase by >60 ms ([2]; CVC 100 mg (N = 58)): 1 (2%) n (%); QTcF interval Pathologically prolonged (> 500 ms) ([2]; CVC 100 mg (N = 58)): 0 n (%); QTcF interval Prolonged (480 ms < prolonged ≤ 500 ms) ([2]; CVC 100 mg (N = 58)): 0 n (%); HR Abnormally high (120 bpm ≤ abnormally high) ([2]; CVC 200 mg (N = 57)): 0 n (%); HR Abnormally low (≤ 50 bpm) ([2]; CVC 200 mg (N = 57)): 0 n (%); PR Abnormally high (210 ms ≤ abnormally high) ([2]; CVC 200 mg (N = 57)): 1 (2%) n (%); QRS Abnormally high (120 ms ≤ abnormally high) ([2]; CVC 200 mg (N = 57)): 0 n (%); QRS Abnormally low (≤ 50 ms) ([2]; CVC 200 mg (N = 57)): 0 n (%); QTcB interval Borderline (450 ms ≤ borderline ≤ 480 ms) ([2]; CVC 200 mg (N = 57)): 2 (4%) n (%); QTcB interval Increase by >30-60 ms ([2]; CVC 200 mg (N = 57)): 3 (6%) n (%); QTcB interval Increase by >60 ms ([2]; CVC 200 mg (N = 57)): 0 n (%); QTcB interval Pathologically prolonged (> 500 ms) ([2]; CVC 200 mg (N = 57)): 0 n (%); QTcB interval Prolonged (480 ms < prolonged ≤ 500 ms) ([2]; CVC 200 mg (N = 57)): 0 n (%); QTcF interval Borderline (450 ms ≤ borderline ≤ 480 ms) ([2]; CVC 200 mg (N = 57)): 1 (2%) n (%); QTcF interval Increase by >30-60 ms ([2]; CVC 200 mg (N = 57)): 3 (6%) n (%); QTcF interval Increase by >60 ms ([2]; CVC 200 mg (N = 57)): 0 n (%); QTcF interval Pathologically prolonged (> 500 ms) ([2]; CVC 200 mg (N = 57)): 0 n (%); QTcF interval Prolonged (480 ms < prolonged ≤ 500 ms) ([2]; CVC 200 mg (N = 57)): 0 n (%); Any fasting laboratory abnormality, worst Grade 1 [3]: 9 (8%) n (%); Any fasting laboratory abnormality, worst Grade 2 [3]: 7 (6%) n (%); Any fasting laboratory abnormality, worst Grade 3 [3]: 0 n (%); Any fasting laboratory abnormality, worst Grade 4 [3]: 0 n (%); Any graded (Grade 1-4) fasting laboratory abnormality [3]: 16 (14%) n (%); Fasting LDL cholesterol abnormality, Grade 1 [3]: 3 (3%) n (%); Fasting LDL cholesterol abnormality, Grade 2 [3]: 3 (3%) n (%); Fasting LDL cholesterol abnormality, Grade 3 [3]: 0 n (%); Fasting LDL cholesterol abnormality, Grade 4 [3]: 0 n (%); Fasting LDL cholesterol abnormality, any grade [3]: 6 (5%) n (%); Fasting glucose (serum, high) abnormality, Grade 1 [3]: 3 (3%) n (%); Fasting glucose (serum, high) abnormality, Grade 2 [3]: 2 (2%) n (%); Fasting glucose (serum, high) abnormality, Grade 3 [3]: 0 n (%); Fasting glucose (serum, high) abnormality, Grade 4 [3]: 0 n (%)
